For series [1], the target named is T1, TSPO (Rattus norvegicus, UniProt P16257).
T1 construct: from tissue; host or cells: living rat; peripheral tissues and brain regions
Kind of series: Ex vivo biodistribution of [^18F]DPA-714 in QA lesioned rats. The settings on record: pre-injection 15 min before radioligand; PK 11195 5 mg/kg, DPA-714 and DPA-713 1 mg/kg.
Method: Adult male Wistar rats weighing 300-320 g (Janvier, Le Genest-St-Isle, France) were used for ex vivo experiments.
Quinolonic acid (QA) lesions: Rats were anesthetised with isoflurane (4%, 500 mL/min), placed on a stereotaxic apparatus (Stoelting, Phymep, Paris, France) and were maintained under isoflurane 2% (500 mL/min) during surgery. The skull was exposed and small holes were made with use of a dental drill. […] A cannula (gauge 25, Hamilton, Massy, France) was inserted and a solution of QA (300 nmol in 2 μL phosphate buffer, pH 7.4) was infused at a flow rate of 0.5 μL/min. The syringe was left in place for 4 minutes before being removed to avoid backflow of QA. The bone was filled in with wax and the scalp was then sutured.
For peripheral tissue, results were expressed as the ratio (% ID/g tissue)/(% ID/g blood)±SEM. For brain, results were expressed as the ratio (% ID/g cerebral region)/(% ID/g cerebellum)±SEM. Student t test was performed when the number of data was ≧5. Statistic significance was considered for p<0.05.

In the next series the test system is CBR. The series is described as follows: CBR binding with [^3H]Ro 15-1788, rat brain tissue. The settings on record: for affinity for the CBR (in words): [^3H]Ro 15-1788, rat brain tissue; for Ki: [^3H]Ro 15-1788 radioligand, rat brain tissue.
The nature of series [2]: Log D determined via HPLC. It counts as physicochemical.
In series [3] the target is T2, peripheral benzodiazepine receptor (PBR) (Rattus norvegicus, UniProt P16257).
T2 construct: from tissue; host or cells: living rat (brain, PET and ex vivo biodistribution)
The series is described as follows: PET in rat model of HSV encephalitis. It counts as in vivo. The settings on record: olfactory and retrograde brain areas where HSV-1 accumulates.
From the text: Male Wistar rats were intranasally inoculated with the herpes simplex virus type-1(10^7 PFU in 1001 PBS) or PBS (control). Within a week following inoculation, replicating virus migrated into the brain and induced neuroinflammation.

The subject of series [4] is peripheral benzodiazepine receptor. Conditions: monkey occipital cortex, PET; cited from earlier work.
Series [5] relates to TSPO. Kind of series: In vivo [^18F]DPA-714 baboon PET studies (baseline, blocking, displacement). Also noted: species or system Papio hamadryas baboon.
Method: This dual modality device has a fully-3D PET scanner with 24 crystal rings and a dual slice CT scanner in the same gantry. It yields a reconstructed PET spatial resolution of 6.3 mm full width at half maximum (FWHM) at the centre of the field of view. The baboon was initially anaesthetized with ketamine (8 mg/kg, im). Anaesthesia was maintained with the use of an iv infusion of ketamine (Parnell Laboratory, Australia) in saline at a dose rate of 0.2 mg ketamine/kg/min. The baboon also received MgSO4 (2 mL iv) given over half an hour plus atropine (1 mg im) plus maxalon (5 mg im). The head of the baboon was immobilised with plastic tape to minimise motion artifacts. A CT scan of the head was completed prior to radioligand injection. Acquisition of the PET data in list mode was commenced just prior to radioligand injection and continued for a period of 60 min. […] At the conclusion of each study the list mode data were sorted into a dynamic scan comprising 54 frames (20×30 s, 30×60 s and 4×300 s). […] The radioligand uptake was converted to units of percent injected dose per volume of brain tissue (% dose/mL) and plotted against time.
Decay corrected time activity curves representing the variation in ligand concentration vs. time were constructed from selected slices for regions of interest over the thalamus, cerebellum, striaturn, cortex, skull and whole brain. After the list-mode acquisition, a whole body PET-CT scan was performed, 2 minutes at each of the six bed positions, to determine other sites of radioligand uptake.
The next series has as its system Rat glioma C6 cells. The series is described as follows: Steroid biosynthesis (pregnenolone) assay in C6 cells. It counts as cell-based. Conditions: 40 μM. The protocol: All compounds were used at the same concentration (40 μM); at the end of the incubation period (2 h), the amount of pregnenolone was quantified by radio immunoassay (RIA). The values are the mean of at least three determinations.
Rat glioma C6 cells were cultured in Dulbecco's modified Eagle's medium supplemented with 10% FBS, 2 mM L-glutamine, 100 units/mL penicillin and 100 μg/mL streptomycin. Cultures were maintained in a humidified atmosphere of 5% CO2/95% air at 37° C.
C6 cells were seeded in 24-well plates at a density of ˜1×10^6 cells/well in a final volume of 1 ml. Prior to measurement of pregnenolone production the cells were washed three times with a simple salts medium consisting of 140 mM NaCl, 5 mM KCl, 1.8 mM CaCl2, 1 mM MgSO4, 10 mM glucose, 10 mM HEPES/NaOH, pH 7.4, plus 0.1% BSA. During experiments, cells were incubated with this simple salts medium in an air incubator at 37° C. […] At the end of the incubation period (2 h) the cell medium was retained and centrifuged at 1500 g for 10 min. The amount of pregnenolone secreted into the medium was quantified by radio immunoassay (RIA), using an antibody obtained from ICN Biochemical Inc., Calif., USA, under the conditions recommended by the supplier.

A further series has as its system Sprague-Dawley rat. The series is described as follows: Single intravenous dose toxicity study in the rat. Format: in vivo. The protocol: The study involved 2 groups of […] SPF Sprague-Dawley rats (each of 5 males and 5 females), 7 weeks old and weighing between 193.1 g and 215 g for males and between 160.6 g and 180.1 g for females on the day of randomisation. Animals were purchased from Charles River Laboratories France (Domaine des Oncins—69592 L'Arbresle Cedex, France).
Animals were weighed on the day of randomisation, on D7, D14 and D15 (day of necropsy).
General observations were performed on D1, 60 minutes±30 minutes after dosing, again between 3 and 4 hours post-dose and then once a day for 14 days. Functional and neurobehavioural tests were also assessed on D1, 60 minutes±30 minutes after dosing and then on D7 and D 14. Mortality was recorded twice a day for 14 days. All animals surviving at the end of the 14-day period were submitted to gross necropsy.

Series [6] can be described thus: In-vivo stability of [^18F]DPA-714 in rat plasma (TLC). The settings on record: 2 h post tracer injection.

Each structure is given as a SMILES string.

Turning to `CCC(C)N(C)C(=O)c1cc2ccccc2c(-c2ccccc2Cl)n1` (stereo not drawn) [PK 11195], the “inhibition of [^18F]DPA-714 uptake in peripheral tissues by pre-treatment” value at TSPO [1] was “significant inhibition of radioligand uptake in the heart, bone and liver but not in the adrenals and muscle”. In the series with CBR, the “affinity for the CBR (in words)” value is “negligible” and the Ki is above 10000 nM. The molecule also showed a chromatographic logD in series [2] of 3.35.
For the molecule `CCC(C)N([11CH3])C(=O)c1cc2ccccc2c(-c2ccccc2Cl)n1` (stereo not drawn) [[^11C]PK11195], the “uptake in HSE rats versus control (in words)” value in series [3] is recorded as “not significantly increased”.
On to `COc1ccc(O[11CH3])c(CN(C(C)=O)c2cc(F)ccc2Oc2ccccc2)c1` [[^11C]DAA1106], for which the “binding compared with [^11C](R)-PK 11195” value in series [4] is on record as “four times greater”.
On to `CCN(CC)C(=O)Cc1c(-c2ccc(OCCF)cc2)nn2c(C)cc(C)nc12` [DPA-714, N,N-Diethyl-2-{2-[4-(2-fluoro-ethoxy)-phenyl]-5,7-dimethyl-pyrazolo[1,5-a]pyrimidin-3-yl}-acetamide], for which the “displacement of [^18F]DPA-714 from whole baboon brain” value with TSPO [5] (cold DPA-714 1 mg/kg at 20 minutes post injection) is “complete washout of the radioligand”. The “displacement of [^18F]DPA-714 binding in peripheral regions” value with TSPO [5] (cold DPA-714 at 20 minutes after radioligand, data not shown) is on record as “complete displacement”. The “pregnenolone synthesis above baseline” value with Rat glioma C6 cells (2 h, C6 glioma rat cells, RIA) was 80%. In addition, the “activity at stimulating neurosteroid synthesis compared with PK 11195” value in the series with Rat glioma C6 cells (same assay) is on record as “twice more active”. In addition, the toxicity signs overall entry with Sprague-Dawley rat (administered once i.v. at 5 mL/kg, batch No. 140306) is “did not induce any toxicity sign”. Moreover, the LD50 entry in the series with Sprague-Dawley rat (rat, in vivo, iv) is given as “higher than 5 mL/kg”. In the series with CBR, the “affinity for the CBR (in words)” value is recorded as “negligible” and the Ki was above 10000 nM. This molecule had a chromatographic logD in series [2] of 2.44.
Turning to `CCN(CC)C(=O)Cc1c(-c2ccc(OCC[18F])cc2)nn2c(C)cc(C)nc12` [[^18F]DPA-714], in the series with TSPO [5] (baseline PET study), the “uptake in the baboon skull” value was “No uptake”. Besides, the “blood brain barrier penetration / accumulation in the brain” value with TSPO [5] (baseline PET study, 100 MBq i.v., baboon) is recorded as “capable of penetrating the blood brain barrier with considerable accumulation in the brain”. The “time to maximum uptake in whole baboon brain” value with TSPO [5] (baseline study, time activity curve) is recorded as “within ten minutes”. In addition, the “whole body uptake in the heart, adrenals and salivary glands” value in the series on TSPO [5] (whole body PET after brain imaging) was “high uptake”. The “radioactivity in rat plasma consisting of the parent compound” value in [6] is on record as 78±1%.
For `CCN(CC)C(=O)Cc1c(-c2ccc(OC)cc2)nn2c(C)cc(C)nc12` [DPA-713, N,N-Diethyl-2-[2-(4-methoxy-phenyl)-5,7-dimethylpyrazolo[1,5-a]pyrimidin-3-yl]-acetamide], the “effect on steroidogenesis (in words)” value in the series on Rat glioma C6 cells (2 h, C6 glioma rat cells) is reported as “no effect”. Besides, in the series on CBR, the “affinity for the CBR (in words)” value was “negligible” and the Ki is above 10000 nM. The same molecule had a chromatographic logD in series [2] of 2.44.

Source of the values: patent US20090311176A1, “2-Arylpyrazolo[L,5-Alpha] Pyrimidin-3-YL Acetamide Derivatives as Ligands for Translocator Protein (18 Kda)” (The University of Sydney, priority 2006, published 2009).
